In ChEMBL document CHEMBL1914411, “Synthesis of lipophilic dimeric C-7/C-7-linked ciprofloxacin and C-6/C-6-linked levofloxacin derivatives. Versatile in vitro biological evaluations of monomeric and dimeric fluoroquinolone derivatives as potential antitumor, antibacterial or antimycobacterial agents” (Eur J Med Chem, 2011):
Converted amounts (≈) assume the structure as drawn. The source made the active and inactive calls. How the calls were made is not given here.

How the values were obtained:
[1] = Antiproliferative activity against human U373MG cells after 120 hrs by MTT asasy; type: functional, cell-based, U-373MG ATCC; details: U373 MG
MCF7 = assay: Antiproliferative activity against human MCF7 cells after 120 hrs by MTT asasy; type: functional, cell-based; details: MCF7, 120 h
Staphylococcus aureus [2] = assay: Antimicrobial activity against Staphylococcus aureus CIP 4.83 after 18 to 24 hrs by broth microdilution method; type: functional
Enterococcus hirae = assay: Antimicrobial activity against Enterococcus hirae CIP 5855 after 18 to 24 hrs by broth microdilution method; type: functional
Pseudomonas aeruginosa = assay: Antimicrobial activity against Pseudomonas aeruginosa CIP 82.118 after 18 to 24 hrs by broth microdilution method; type: functional
Escherichia coli = assay: Antimicrobial activity against Escherichia coli CIP 53126 after 18 to 24 hrs by broth microdilution method; type: functional
Staphylococcus aureus [3] = assay: Antimicrobial activity against methicillin-resistant Staphylococcus aureus ATCC 33591 after 18 to 24 hrs by broth microdilution method; type: functional
Staphylococcus aureus [4] = assay: Antimicrobial activity against methicillin-resistant Staphylococcus aureus ATCC 33592 after 18 to 24 hrs by broth microdilution method; type: functional
Staphylococcus aureus [5] = assay: Antimicrobial activity against multidrug-resistant Staphylococcus aureus isolate 1 after 18 to 24 hrs by broth microdilution method; type: functional
Staphylococcus aureus [6] = assay: Antimicrobial activity against multidrug-resistant Staphylococcus aureus isolate 2 after 18 to 24 hrs by broth microdilution method; type: functional
[7] = system: Mycobacterium tuberculosis; assay: Antimycobacterial activity against Mycobacterium tuberculosis H37Rv assessed as growth inhibition at 0.1 uM after 6 days by MTT colorimetric microassay; type: functional, organism-based
[8] = system: Mycobacterium tuberculosis; assay: Antimycobacterial activity against Mycobacterium tuberculosis H37Rv assessed as growth inhibition at 10 uM after 6 days by MTT colorimetric microassay; type: functional; details: 144 h, read-out: GI
A549 = assay: Antiproliferative activity against human A549 cells after 120 hrs by MTT asasy; type: functional, cell-based; details: A549, 120 h
PC-3 = assay: Antiproliferative activity against human PC3 cells after 120 hrs by MTT asasy; type: functional, cell-based; details: PC-3, 120 h
[9] = system: Mycobacterium tuberculosis; assay: Antimycobacterial activity against Mycobacterium tuberculosis H37Rv after 6 days by MTT colorimetric microassay; type: functional, organism-based; details: 144 h
[10] = system: Mycobacterium tuberculosis; assay: Antimycobacterial activity against Mycobacterium tuberculosis H37Rv assessed as growth inhibition at 1 uM after 6 days by MTT colorimetric microassay; type: functional; details: 144 h, read-out: GI
Staphylococcus aureus [11] = assay: Ratio of ciprofloxacin MIC to compound MIC for methicillin-resistant Staphylococcus aureus ATCC 33592; type: functional
[12] = Solubility of compound in cell medium at 20 uM at 37 degC after 24 hrs; type: physicochemical
Staphylococcus aureus [13] = assay: Ratio of ciprofloxacin MIC to compound MIC for multidrug-resistant Staphylococcus aureus isolate 1; type: functional
Staphylococcus aureus [14] = assay: Ratio of ciprofloxacin MIC to compound MIC for multidrug-resistant Staphylococcus aureus isolate 2; type: functional

SMILES	IC50 [1] [µM]	IC50 (MCF7) [µM]	MBC (Staphylococcus aureus [2]) [µM]	MIC (Staphylococcus aureus [2]) [µM]	MBC (Enterococcus hirae) [µM]	MIC (Enterococcus hirae) [µM]	MBC (Pseudomonas aeruginosa) [µM]	MIC (Pseudomonas aeruginosa) [µM]	MBC (Escherichia coli) [µM]	MIC (Escherichia coli) [µM]	MBC (Staphylococcus aureus [3]) [µM]	MIC (Staphylococcus aureus [3]) [µM]	MBC (Staphylococcus aureus [4]) [µM]	MIC (Staphylococcus aureus [4]) [µM]	MBC (Staphylococcus aureus [5]) [µM]	MIC (Staphylococcus aureus [5]) [µM]	MBC (Staphylococcus aureus [6]) [µM]	MIC (Staphylococcus aureus [6]) [µM]	growth inhibition (GI) [7]	inhibition of growth at 10 µM [8] [%]	also measured
O=C(O)c1cn(C2CC2)c2cc(N3CCN(C(=O)CCCCCCCCCCCCC(=O)N4CCN(c5cc6c(cc5F)c(=O)c(C(=O)O)cn6C5CC5)CC4)CC3)c(F)cc2c1=O	5	5	1.9 (≈ 1.68 µg/mL)	≤ 0.12	500 (≈ 443 µg/mL)	125 (≈ 111 µg/mL)	250 (≈ 221 µg/mL)	62.5 (≈ 55.3 µg/mL)	500 (≈ 443 µg/mL)	62.5 (≈ 55.3 µg/mL)	3.9 (≈ 3.45 µg/mL)	0.06 (≈ 0.0531 µg/mL)	0.97 (≈ 0.858 µg/mL)	0.12 (≈ 0.106 µg/mL)	500 (≈ 443 µg/mL)	7.8 (≈ 6.9 µg/mL)	15.6 (≈ 13.8 µg/mL)	7.8 (≈ 6.9 µg/mL)	inactive	–	–
O=C(CCCCCCCCCCCCC(=O)OCN1CCN(c2cc3c(cc2F)c(=O)c(C(=O)O)cn3C2CC2)CC1)OCN1CCN(c2cc3c(cc2F)c(=O)c(C(=O)O)cn3C2CC2)CC1	3	9	≤ 0.97	≤ 0.97	15.6 (≈ 14.7 µg/mL)	15.6 (≈ 14.7 µg/mL)	125 (≈ 118 µg/mL)	62.5 (≈ 59.1 µg/mL)	62.5 (≈ 59.1 µg/mL)	31.2 (≈ 29.5 µg/mL)	3.9 (≈ 3.69 µg/mL)	0.97 (≈ 0.917 µg/mL)	0.48 (≈ 0.454 µg/mL)	–	250 (≈ 236 µg/mL)	62.5 (≈ 59.1 µg/mL)	62.5 (≈ 59.1 µg/mL)	31.2 (≈ 29.5 µg/mL)	inactive	87	–
CCCCCCCCNC(=O)c1cn2c3c(c(N4CCN(C)CC4)c(F)cc3c1=O)OC[C@@H]2C	2.3	–	31.2 (≈ 14.7 µg/mL)	31.2 (≈ 14.7 µg/mL)	31.2 (≈ 14.7 µg/mL)	31.2 (≈ 14.7 µg/mL)	250 (≈ 118 µg/mL)	31.2 (≈ 14.7 µg/mL)	500 (≈ 236 µg/mL)	125 (≈ 59.1 µg/mL)	–	–	–	–	–	–	–	–	inactive	> 95	–
C[C@H]1COc2c(N3CCN(C)CC3)c(F)cc3c(=O)c(C(=O)O)cn1c23 [LEVOFLOXACIN]	67	67	≤ 0.97	≤ 0.97	1.9 (≈ 0.687 µg/mL)	≤ 0.97	≤ 0.97	≤ 0.97	≤ 0.97	≤ 0.97	–	–	–	–	–	–	–	–	inactive	96	IC50 (A549): 67 µM; IC50 (PC-3): 67 µM; IC50 [9]: 0.8 µM; MIC [9]: 2.5 µM (≈ 0.903 µg/mL); inhibition of growth at 1 µM [10]: 85%
O=C(O)c1cn(C2CC2)c2cc(N3CCN(C(=O)CCCCCCCCCCCCCC(=O)N4CCN(c5cc6c(cc5F)c(=O)c(C(=O)O)cn6C5CC5)CC4)CC3)c(F)cc2c1=O	–	–	1.9 (≈ 1.71 µg/mL)	≤ 0.06	500 (≈ 450 µg/mL)	125 (≈ 112 µg/mL)	250 (≈ 225 µg/mL)	62.5 (≈ 56.2 µg/mL)	500 (≈ 450 µg/mL)	62.5 (≈ 56.2 µg/mL)	0.97 (≈ 0.872 µg/mL)	0.06 (≈ 0.0539 µg/mL)	0.48 (≈ 0.432 µg/mL)	0.06 (≈ 0.0539 µg/mL)	500 (≈ 450 µg/mL)	1.9 (≈ 1.71 µg/mL)	31.2 (≈ 28.1 µg/mL)	15.6 (≈ 14 µg/mL)	inactive	40	Ratio (Staphylococcus aureus [11]): 8
C[C@H]1COc2c(N3CCN(C)CC3)c(F)cc3c(=O)c(C(=O)NCCCCCCCCCCCCNC(=O)c4cn5c6c(c(N7CCN(C)CC7)c(F)cc6c4=O)OC[C@@H]5C)cn1c23	–	–	1.9 (≈ 1.69 µg/mL)	1.9 (≈ 1.69 µg/mL)	3.9 (≈ 3.46 µg/mL)	3.9 (≈ 3.46 µg/mL)	31.2 (≈ 27.7 µg/mL)	31.2 (≈ 27.7 µg/mL)	≤ 0.97	≤ 0.97	–	–	–	–	–	–	–	–	inactive	60	IC50 [9]: 2.1 µM; MIC [9]: 5 µM (≈ 4.44 µg/mL); solubility [12]: Insoluble
CCCCCC(=O)OCC(=O)N1CCN(c2cc3c(cc2F)c(=O)c(C(=O)O)cn3C2CC2)CC1	–	–	≤ 0.24	≤ 0.03	≤ 0.97	≤ 0.97	250 (≈ 122 µg/mL)	62.5 (≈ 30.5 µg/mL)	31.2 (≈ 15.2 µg/mL)	31.2 (≈ 15.2 µg/mL)	0.06 (≈ 0.0293 µg/mL)	0.03 (≈ 0.0146 µg/mL)	–	–	500 (≈ 244 µg/mL)	15.6 (≈ 7.61 µg/mL)	15.6 (≈ 7.61 µg/mL)	7.8 (≈ 3.8 µg/mL)	inactive	> 95	Ratio (Staphylococcus aureus [13]): 2; Ratio (Staphylococcus aureus [14]): 2
CCCC(=O)OCC(=O)N1CCN(c2cc3c(cc2F)c(=O)c(C(=O)O)cn3C2CC2)CC1	–	–	≤ 0.48	≤ 0.24	≤ 0.97	≤ 0.97	250 (≈ 115 µg/mL)	62.5 (≈ 28.7 µg/mL)	31.2 (≈ 14.3 µg/mL)	31.2 (≈ 14.3 µg/mL)	0.97 (≈ 0.446 µg/mL)	0.48 (≈ 0.221 µg/mL)	0.12 (≈ 0.0551 µg/mL)	0.06 (≈ 0.0276 µg/mL)	62.5 (≈ 28.7 µg/mL)	15.6 (≈ 7.17 µg/mL)	15.6 (≈ 7.17 µg/mL)	15.6 (≈ 7.17 µg/mL)	inactive	–	Ratio (Staphylococcus aureus [13]): 2; Ratio (Staphylococcus aureus [14]): 2
